Assay results: the NIST ThermoML archive (doi:10.1021/je100832h)

Conditions: Liquid; for mass density: 101.32 kPa, Vibrating tube method; for vapor or sublimation pressure: Ebulliometric method (Recirculating still)

CCCCCCCCCC [decane]
Conditions	mass density [kg/m3]	vapor or sublimation pressure [kPa]
291.15 K	731.22	–
298.15 K	726.2	–
318.15 K	710.9	–
328.15 K	703.34	–
386.86 K	–	15.86
390.21 K	–	17.94
393.85 K	–	20.43
397.62 K	–	23.28
400.9 K	–	26.08
403.65 K	–	28.54
406.2 K	–	31.1
408.52 K	–	33.59
411.2 K	–	36.58
413.6 K	–	39.44
414.92 K	–	41.05
416.83 K	–	43.54
419.01 K	–	46.44
420.74 K	–	48.95
422.51 K	–	51.55
424.11 K	–	54.05
425.85 K	–	56.84
427.5 K	–	59.6
429.13 K	–	62.41
430.69 K	–	65.23
432.29 K	–	68.16
433.61 K	–	70.76
435.15 K	–	73.71
436.57 K	–	76.61
437.52 K	–	78.69
438.92 K	–	81.7
440.19 K	–	84.46
441.29 K	–	86.98
442.23 K	–	89.2
443.35 K	–	91.83
444.37 K	–	94.3
444.8 K	–	95.2
446.16 K	–	98.41
446.55 K	–	99.37
446.97 K	–	100.62
447.3 K	–	101.32
448.21 K	–	103.75
449.29 K	–	106.58
450.33 K	–	109.39
451.31 K	–	112.15
452.1 K	–	114.36
452.89 K	–	116.67
453.87 K	–	119.46
454.7 K	–	121.94
455.13 K	–	123.25
455.92 K	–	125.63
456.82 K	–	128.4
457.59 K	–	130.81
458.4 K	–	133.37
459.16 K	–	135.82
460.02 K	–	138.64
460.42 K	–	140
461.26 K	–	142.82
462.1 K	–	145.65
463.1 K	–	148.84
463.75 K	–	151.4
464.39 K	–	153.69
465.12 K	–	156.4
465.77 K	–	158.65
466.55 K	–	161.57
467.33 K	–	164.47
468.04 K	–	167.22
468.81 K	–	170.16
469.38 K	–	172.45
470.03 K	–	175.03
470.6 K	–	177.34
471.2 K	–	179.77
471.77 K	–	182.08
472.23 K	–	184.14
472.78 K	–	186.39
473.35 K	–	188.8
474.12 K	–	191.58
474.81 K	–	194.61
475.37 K	–	197.04

CCOC(C)=O [ethyl acetate]
Conditions	mass density [kg/m3]	vapor or sublimation pressure [kPa]
291.15 K	902.88	–
297.17 K	–	11.89
298.15 K	894.4	–
303.35 K	–	16.04
306.25 K	–	18.33
308.86 K	–	20.64
310.67 K	–	22.44
312.53 K	–	24.34
315.44 K	–	27.63
318.15 K	869.6	–
318.46 K	–	31.33
321.01 K	–	34.85
323.47 K	–	38.43
324.8 K	–	40.61
327.41 K	–	44.98
328.15 K	857.17	–
329.77 K	–	49.27
331.51 K	–	52.56
333.07 K	–	55.72
335.02 K	–	59.91
336.33 K	–	62.83
337.91 K	–	66.49
339.09 K	–	69.34
340.23 K	–	72.26
341.69 K	–	76.02
343.03 K	–	79.83
344.11 K	–	82.56
345.53 K	–	86.85
346.86 K	–	90.81
348.09 K	–	94.63
348.75 K	–	96.74
349.45 K	–	98.97
349.56 K	–	99.36
349.76 K	–	100.07
349.93 K	–	100.68
350.15 K	–	101.32
351.12 K	–	104.65
351.77 K	–	106.84
352.12 K	–	108.13
352.94 K	–	111.21
353.91 K	–	114.65
354.43 K	–	116.46
354.93 K	–	118.56
355.5 K	–	120.68
355.91 K	–	122.31
356.37 K	–	124
357.35 K	–	127.89
357.92 K	–	130
358.74 K	–	133.45
359.44 K	–	136.34
360.03 K	–	139.07
360.88 K	–	142.55
361.73 K	–	146.37
362.62 K	–	150.43
363.72 K	–	155.58
364.25 K	–	157.94
364.81 K	–	160.53
365.52 K	–	163.99
366.29 K	–	167.81
367 K	–	171.33
367.64 K	–	174.65
367.98 K	–	176.37
368.83 K	–	180.88
369.49 K	–	184.43
370.07 K	–	187.47
370.69 K	–	190.92
371.5 K	–	195.35

CCCCCCC [heptane]
Conditions	mass density [kg/m3]	vapor or sublimation pressure [kPa]
291.15 K	685.28	–
298.15 K	679.48	–
305.26 K	–	8.32
310.22 K	–	10.55
314.93 K	–	13.09
316.5 K	–	14.07
318.15 K	662.06	–
319.71 K	–	16.19
323.62 K	–	19.1
326.44 K	–	21.45
328.15 K	653.6	–
329.04 K	–	23.79
331.48 K	–	26.14
333.21 K	–	27.97
335.5 K	–	30.51
337.48 K	–	32.84
339.56 K	–	35.53
341.35 K	–	37.87
342.96 K	–	40.12
344.47 K	–	42.35
346.04 K	–	44.75
347.28 K	–	46.71
348.72 K	–	49.09
350.12 K	–	51.49
351.21 K	–	53.41
352.49 K	–	55.76
353.62 K	–	57.88
354.79 K	–	60.18
356.25 K	–	63.11
357.84 K	–	66.42
358.68 K	–	68.27
359.98 K	–	71.15
361.33 K	–	74.25
362.3 K	–	76.55
363.32 K	–	79
364.24 K	–	81.28
365.32 K	–	84.05
366.2 K	–	86.3
366.87 K	–	88.1
367.97 K	–	91.09
368.83 K	–	93.46
369.84 K	–	96.33
370.85 K	–	98.98
371.11 K	–	100
371.35 K	–	100.68
371.56 K	–	101.32
372.42 K	–	103.92
373.25 K	–	106.48
373.98 K	–	108.71
374.93 K	–	111.77
375.41 K	–	113.35
376.29 K	–	116.21
377.17 K	–	119.14
377.51 K	–	120.32
378.49 K	–	123.7
379.37 K	–	126.8
380.26 K	–	130
380.83 K	–	132.04
392.89 K	–	182.39
393.79 K	–	186.6
394.43 K	–	189.67
395.1 K	–	192.97
395.73 K	–	196.04
396.09 K	–	197.85
396.5 K	–	199.97

CCCCCC [hexane]
Conditions	mass density [kg/m3]	vapor or sublimation pressure [kPa]
291.15 K	661.17	–
292.98 K	–	15.88
296.27 K	–	18.39
298.15 K	654.9	–
298.95 K	–	20.69
302.2 K	–	23.81
304.49 K	–	26.19
306.76 K	–	28.77
308.28 K	–	30.68
310.14 K	–	32.97
311.96 K	–	35.53
313.7 K	–	37.95
315.07 K	–	40.1
316.51 K	–	42.3
317.91 K	–	44.59
318.15 K	636.5	–
319.58 K	–	47.35
320.83 K	–	49.63
322.02 K	–	51.87
323.45 K	–	54.51
324.35 K	–	56.42
325.74 K	–	59.15
327.09 K	–	62.05
327.99 K	–	64.02
328.15 K	627	–
329.13 K	–	66.61
330.14 K	–	68.93
330.93 K	–	70.86
331.87 K	–	73.11
332.87 K	–	75.62
333.77 K	–	78.04
334.61 K	–	80.11
335.65 K	–	82.94
336.53 K	–	85.4
337.38 K	–	87.73
338.26 K	–	90.28
339.25 K	–	93.18
340.1 K	–	95.79
340.92 K	–	98.28
341.17 K	–	99.08
341.6 K	–	100.39
341.88 K	–	101.32
342.34 K	–	102.83
343.01 K	–	104.95
343.62 K	–	106.98
344.52 K	–	110.01
344.69 K	–	110.65
345.43 K	–	113.16
346.05 K	–	115.31
346.66 K	–	117.46
347.36 K	–	119.99
348.05 K	–	122.52
348.44 K	–	124.01
349.04 K	–	126.23
349.61 K	–	128.44
349.82 K	–	129.32
350.34 K	–	131.23
350.82 K	–	133.07
351.42 K	–	135.49
351.93 K	–	137.54
352.53 K	–	139.99
352.83 K	–	141.31
353.22 K	–	142.8
353.87 K	–	145.75
354.23 K	–	147.04
354.71 K	–	149.34
355.4 K	–	152.14
355.66 K	–	153.31
356.04 K	–	155.14
356.52 K	–	157.29
357.01 K	–	159.38
357.38 K	–	161.05
357.8 K	–	162.94
358.47 K	–	166.02
358.88 K	–	167.98
359.18 K	–	169.31
359.69 K	–	171.84
359.9 K	–	172.89
360.51 K	–	175.78
360.8 K	–	177.31
361.09 K	–	178.67
361.54 K	–	180.95
361.86 K	–	182.61
362.43 K	–	185.32
362.68 K	–	186.64
362.98 K	–	188.2
363.52 K	–	191.05
363.95 K	–	193.35
